Test results as given in US9340538B2, “Dihydropyrimidine compounds and their application in pharmaceuticals” (SUNSHINE LAKE PHARMA CO., LTD., priority 2013, dated 2016).
Where two headings read alike, the source gives them in different places.

Test system: HBV
Assay: In-vitro anti-HBV activity in stable HBV-producing cell line (HepG2.2.15), HBV DNA in culture fluid by qPCR
Type: cell-based
Settings: Hepatitis B virus, read-out: HBV (% Inh.) (500 nmol)
Procedure: In-Vitro Anti-HBV Activity of Compounds in Stable HBV-Producing Cell Line (HepG2.2.15)
HBV DNA contents in cell culture fluid were detected by the qPCR-based assay and percents of HBV inhibition by compounds (% Inh) were calculated. Specific procedures are as follows:
HepG2.2.15 cells were seeded into each well of 96-well plates, 40,000 cells per well. Cells were treated with cell culture medium containing compounds 24 hours after cell seeding. Each compound to detected percent inhibition was in duplicate and the final concentration of each compound was 500 nmol in each well. The compound-containing mediums were refreshed on day 4 post cell seeding. Culture media were collected from the HepG2.2.15 plates on day 7 post cell seeding followed by HBV DNA extraction.
HBV DNA extraction: using QIAamp 96 DNA Blood Kit (QIAGEN 51161).
PCR for quantification: PCR mix was prepared according to PCR system; PCR mix was dispensed to 384-well optical reaction plates (special for quantification); The standard diluted proportionally was added; The sample was added; The plates were sealed with optical adhesive film; PCR system was performed according to programs.
Percent of HBV inhibition of DNA replication by compound was calculated using the following equation: % Inh.=[1-HBV DNA quantity of sample/HBV DNA quantity of DMSO control]*100. II. Assay Results

[1] = 168 h, 500 nmol final concentration, HepG2.2.15 cells, HBV DNA in culture media on day 7 post seeding, vs DMSO control

| Compound | inhibition at 0.5 µM [1] [%] | inhibition at 0.5 µM (HepG2.2.15, 168 h) [%] |
| --- | --- | --- |
| CCOC(=O)C1=C(CN2CCO[C@H](COC(=O)C(N)C(C)C)C2)NC(c2nccs2)=NC1c1ccc(F)cc1Br (stereo in doubt) [Example 126, Ethyl 6-(((S)-2-((((S)-2-amino-3-methylbutanoyl)oxy)methyl)morpholino)methyl)-4-(2-bromo-4-fluorophenyl)-2-(thiazol-2-yl)-1,4-dihydropyrimidine-5-carboxylate] | 94.7 |  |
| CCOC(=O)C1=C(CN2CCOCC2C(=O)O)NC(c2nccs2)=NC1c1ccccc1C(F)(F)F (centres unmarked) [Example 1, 4-((5-(ethoxycarbonyl)-2-(thiazol-2-yl)-6-(2-(trifluoromethyl)phenyl)-3,6-dihydropyrimidin-4-yl)methyl)morpholine-3-carboxylic acid] | 75.8 |  |
| CCOC(=O)C1=C(CN2CCOCC2C(=O)O)NC(c2nccs2)=NC1c1ccccc1[N+](=O)[O-] (centres unmarked) [Example 2, 4-((5-(ethoxycarbonyl)-6-(2-nitrophenyl)-2-(thiazol-2-yl)-3,6-dihydropyrimidin-4-yl)methyl)morpholine-3-carboxylic acid] | 31.3 |  |
| CCOC(=O)C1=C(CN2CCOCC2C(=O)O)NC(c2nccs2)=NC1c1ccc(F)cc1Br (centres unmarked) [Example 3, 4-((6-(2-bromo-4-fluorophenyl)-5-(ethoxycarbonyl)-2-(thiazol-2-yl)-3,6-dihydropyrimidin-4-yl)methyl)morpholine-3-carboxylic acid] | 84.5 |  |
| CCOC(=O)C1=C(CN2CCOCC2C(=O)O)NC(c2nccs2)=NC1c1ccc(F)cc1Cl (centres unmarked) [Example 4, 4-((6-(2-chloro-4-fluorophenyl)-5-(ethoxycarbonyl)-2-(thiazol-2-yl)-3,6-dihydropyrimidin-4-yl)methyl)morpholine-3-carboxylic acid] | 90 |  |
| CCOC(=O)C1=C(CN2CCOCC2C(=O)O)NC(c2nccs2)=NC1c1ccc(Cl)cc1Cl (centres unmarked) [Example 5, 4-((6-(2,4-dichlorophenyl)-5-(ethoxycarbonyl)-2-(thiazol-2-yl)-3,6-dihydropyrimidin-4-yl)methyl)morpholine-3-carboxylic acid] |  | 95 |
| COC(=O)C1=C(CN2CCOCC2C(=O)O)NC(c2nccs2)=NC1c1ccc(F)cc1Br (centres unmarked) [Example 6, 4-((6-(2-bromo-4-fluorophenyl)-5-(methoxycarbonyl)-2-(thiazol-2-yl)-3,6-dihydropyrimidin-4-yl)methyl)morpholine-3-carboxylic acid] | 99.9 |  |
| CCOC(=O)C1=C(CN2CCOC(C(=O)O)C2)NC(c2nccs2)=NC1c1ccc(F)cc1Br (centres unmarked) [Example 9, 4-((6-(2-bromo-4-fluorophenyl)-5-(ethoxycarbonyl)-2-(thiazol-2-yl)-3,6-dihydropyrimidin-4-yl)methyl)morpholine-2-carboxylic acid] |  | 93.1 |
| CCOC(=O)C1=C(CN2CCOC(C(=O)O)C2)NC(c2nccs2)=NC1c1ccc(F)cc1Cl (centres unmarked) [Example 10, 4-((6-(2-chloro-4-fluorophenyl)-5-(ethoxycarbonyl)-2-(thiazol-2-yl)-3,6-dihydropyrimidin-4-yl)methyl)morpholine-2-carboxylic acid] | 89.7 |  |
| CCOC(=O)C1=C(CN2CCOC(C(=O)O)C2)NC(c2nccs2)=NC1c1ccc(Cl)cc1Cl (centres unmarked) [Example 11, 4-((6-(2,4-dichlorophenyl)-5-(ethoxycarbonyl)-2-(thiazol-2-yl)-3,6-dihydropyrimidin-4-yl)methyl)morpholine-2-carboxylic acid] | 95.6 |  |
| COC(=O)C1=C(CN2CCOC(C(=O)O)C2)NC(c2nccs2)=NC1c1ccc(F)cc1Br (centres unmarked) [Example 12, 4-((6-(2-bromo-4-fluorophenyl)-5-(methoxycarbonyl)-2-(thiazol-2-yl)-3,6-dihydropyrimidin-4-yl)methyl)morpholine-2-carboxylic acid] | 53.8 |  |
| COC(=O)C1=C(CN2CCOC(C(=O)O)C2)NC(c2nccs2)=NC1c1ccc(F)cc1Cl (centres unmarked) [Example 13, 4-((6-(2-chloro-4-fluorophenyl)-5-(methoxycarbonyl)-2-(thiazol-2-yl)-3,6-dihydropyrimidin-4-yl)methyl)morpholine-2-carboxylic acid] | 54.5 |  |
| CCOC(=O)C1=C(CN2CC(C)(C)OC[C@H]2C(=O)O)NC(c2nccs2)=NC1c1ccc(Cl)cc1Cl (stereo partly drawn) [Example 21, (3S)-4-((6-(2,4-dichlorophenyl)-5-(ethoxycarbonyl)-2-(thiazol-2-yl)-3,6-dihydropyrimidin-4-yl)methyl)-6,6-dimethylmorpholine-3-carboxylic acid] | 51.2 |  |
| CCOC(=O)C1=C(CN2CC(C)(C)OC[C@H]2C(=O)O)NC(c2nccs2)=NC1c1ccc(F)cc1Cl (stereo partly drawn) [Example 23, (3S)-4-((6-(2-chloro-4-fluorophenyl)-5-(ethoxycarbonyl)-2-(thiazol-2-yl)-3,6-dihydropyrimidin-4-yl)methyl)-6,6-dimethylmorpholine-3-carboxylic acid] | 45 |  |
| CCOC(=O)C1=C(CN2CC(C)(C)OC[C@H]2C(=O)OC)NC(c2nccs2)=NC1c1ccc(Cl)cc1Cl (stereo partly drawn) [Example 24, Methyl (3S)-4-((6-(2,4-dichlorophenyl)-5-(ethoxycarbonyl)-2-(thiazol-2-yl)-3,6-dihydropyrimidin-4-yl)methyl)-6,6-dimethylmorpholine-3-carboxylate] | 56.1 |  |
| CCOC(=O)C1=C(CN2CCOCC2C(N)=O)NC(c2nccs2)=NC1c1ccc(F)cc1Br (centres unmarked) [Example 25, Ethyl 4-(2-bromo-4-fluorophenyl)-6-((3-carbamoylmorpholino)methyl)-2-(thiazol-2-yl)-1,4-dihydropyrimidine-5-carboxylate] | 91.9 |  |
| CCOC(=O)C1=C(CN2CCOCC2C(N)=O)NC(c2nccs2)=NC1c1ccc(F)cc1Cl (centres unmarked) [Example 26, Ethyl 6-((3-carbamoylmorpholino)methyl)-4-(2-chloro-4-fluorophenyl)-2-(thiazol-2-yl)-1,4-dihydropyrimidine-5-carboxylate] | 96 |  |
| CCOC(=O)C1=C(CN2CCOCC2C(N)=O)NC(c2nccs2)=NC1c1ccc(Cl)cc1Cl (centres unmarked) [Example 27, Ethyl 6-((3-carbamoylmorpholino)methyl)-4-(2,4-dichlorophenyl)-2-(thiazol-2-yl)-1,4-dihydropyrimidine-5-carboxylate] | 91.9 |  |
| CCOC(=O)C1=C(CN2CCO[C@H](C)[C@H]2C(=O)O)NC(c2nccs2)=NC1c1ccc(F)cc1Br (stereo partly drawn) [Example 34, (2R,3S)-4-((6-(2-bromo-4-fluorophenyl)-5-(ethoxycarbonyl)-2-(thiazol-2-yl)-3,6-dihydropyrimidin-4-yl)methyl)-2-methylmorpholine-3-carboxylic acid] |  | 94.3 |
| CCOC(=O)C1=C(CN2CCOC[C@@H]2CO)NC(c2nccs2)=NC1c1ccc(F)cc1Br (stereo partly drawn) [Example 40, Ethyl 4-(2-bromo-4-fluorophenyl)-6-(((S)-3-(hydroxymethyl)morpholino)methyl)-2-(thiazol-2-yl)-1,4-dihydropyrimidine-5-carboxylate] | 95 |  |
| CCOC(=O)C1=C(CN2CCOC[C@@H]2CO)NC(c2nccs2)=NC1c1ccc(Cl)cc1Cl (stereo partly drawn) [Example 42, Ethyl 4-(2,4-dichlorophenyl)-6-(((S)-3-(hydroxymethyl)morpholino)methyl)-2-(thiazol-2-yl)-1,4-dihydropyrimidine-5-carboxylate] |  | 91.9 |
| CCOC(=O)C1=C(CN2CCOC[C@H]2COC(=O)[C@@H](N)C(C)C)NC(c2nccs2)=NC1c1ccc(F)cc1Br (stereo partly drawn) [Example 49, Ethyl 6-(((S)-3-((((S)-2-amino-3-methylbutanoyl)oxy)methyl)morpholino)methyl)-4-(2-bromo-4-fluorophenyl)-2-(thiazol-2-yl)-1,4-dihydropyrimidine-5-carboxylate] | 96.2 |  |
| CCOC(=O)C1=C(CN2CCOCC2C(=O)OC)NC(c2nccs2)=NC1c1ccc(F)cc1Br (centres unmarked) [Example 51, Methyl 4-((6-(2-bromo-4-fluorophenyl)-5-(ethoxycarbonyl)-2-(thiazol-2-yl)-3,6-dihydropyrimidin-4-yl)methyl)morpholine-3-carboxylate] |  | 91.3 |
| CCOC(=O)C1=C(CN2CCOC[C@H]2C(=O)NO)NC(c2nccs2)=NC1c1ccc(F)cc1Br (stereo partly drawn) [Example 52, Ethyl 4-(2-bromo-4-fluorophenyl)-6-(((S)-3-(hydroxycarbamoyl)morpholino)methyl)-2-(thiazol-2-yl)-1,4-dihydropyrimidine-5-carboxylate] | 89.5 |  |
| CCOC(=O)C1=C(CN2CCOC[C@H]2C(=O)NOC)NC(c2nccs2)=NC1c1ccc(F)cc1Br (stereo partly drawn) [Example 53, Ethyl 4-(2-bromo-4-fluorophenyl)-6-(((S)-3-(methoxycarbamoyl)morpholino)methyl)-2-(thiazol-2-yl)-1,4-dihydropyrimidine-5-carboxylate] | 92.6 |  |
| CCOC(=O)C1=C(CN2CCOC[C@H]2C(=O)NCCO)NC(c2nccs2)=NC1c1ccc(F)cc1Br (stereo partly drawn) [Example 54, Ethyl 4-(2-bromo-4-fluorophenyl)-6-(((S)-3-((2-hydroxyethyl)carbamoyl)morpholino)methyl)-2-(thiazol-2-yl)-1,4-dihydropyrimidine-5-carboxylate] | 91 |  |
